Here are results for three compounds from ChEMBL document CHEMBL2074093, “The predominant contribution of oligopeptide transporter PepT1 to intestinal absorption of beta-lactam antibiotics in the rat small intestine” (J Pharm Pharmacol, 1997).

The target in the assay is T1, Solute carrier family 15 member 1 (Rattus norvegicus) (UniProt P51574).
T1 sequence (whole entry): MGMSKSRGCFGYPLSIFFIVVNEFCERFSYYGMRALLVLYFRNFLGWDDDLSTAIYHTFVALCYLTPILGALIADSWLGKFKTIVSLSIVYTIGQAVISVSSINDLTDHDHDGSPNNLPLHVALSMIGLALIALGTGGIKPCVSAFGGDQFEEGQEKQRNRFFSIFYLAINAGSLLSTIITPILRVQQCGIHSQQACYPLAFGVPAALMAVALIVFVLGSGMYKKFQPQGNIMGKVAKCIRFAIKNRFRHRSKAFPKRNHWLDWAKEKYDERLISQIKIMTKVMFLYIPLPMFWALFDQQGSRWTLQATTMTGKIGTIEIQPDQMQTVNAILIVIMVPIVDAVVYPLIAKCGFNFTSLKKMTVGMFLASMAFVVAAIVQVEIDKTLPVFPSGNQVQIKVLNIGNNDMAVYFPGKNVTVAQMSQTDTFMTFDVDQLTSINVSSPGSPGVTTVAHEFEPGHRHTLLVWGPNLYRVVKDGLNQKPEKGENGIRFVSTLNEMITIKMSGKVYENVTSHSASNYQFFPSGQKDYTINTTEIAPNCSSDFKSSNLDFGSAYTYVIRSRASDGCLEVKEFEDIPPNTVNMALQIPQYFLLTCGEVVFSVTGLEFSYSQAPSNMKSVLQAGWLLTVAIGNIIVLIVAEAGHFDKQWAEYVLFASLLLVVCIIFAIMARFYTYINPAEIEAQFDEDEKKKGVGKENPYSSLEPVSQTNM
Description: TP_TRANSPORTER: uptake in Xenopus laevis oocytes. To be noted: Oocyte. The assay is classed as functional, cell-based.

Take `CC1=C(C(=O)O)N2C(=O)[C@@H](NC(=O)[C@H](N)c3ccccc3)[C@H]2SC1`: the Activity result is “substrate [+]”.

As to `C=CC1=C(C(=O)O)N2C(=O)[C@@H](NC(=O)/C(=N\OCC(=O)O)c3csc(N)n3)[C@H]2SC1`, the Activity entry was “substrate [+]”. To `CC1=C(C(=O)O)N2C(=O)[C@@H](NC(=O)[C@H](N)c3ccc(O)cc3)[C@H]2SC1` belongs “substrate [+]”.
